Test results taken from patent publication US5665764A, “Tricyclic inhibitors of matrix metalloproteinases” (Warner-Lambert Company, priority 1995, dated 1997).

Key:
[1] = tested on: Mycobacterium footpad edema; test: Mycobacterium footpad edema assay (MFE); assay type: in vivo, male Wistar rats; settings: daily, third day, statistically significant
Experimental: The activity of Example 2 as a general inhibitor of inflammation was tested using the Mycobacterium footpad edema assay (MFE) in Wistar rats. Compound was administered daily by gavage at 2 mg/kg, 10 mg/kg, or 50 mg/kg.
Male outbred Wistar rats (110-125 g, Charles River Labs, Portage, Mich.) were used in this study. Rats were housed for a minimum of 1 week before use. Food and water were supplied ad libitum. Foot pad edema was induced following the method described by Martel R. R. and Klicius J., "Comparisons in rats of the anti-inflammatory and gastric irritant effects of etodolac with several clinically effective antiinflammatory drugs", Agents and Actions, 1982;12:295. Briefly, male Wistar rats were injected subcutaneously into the right hind footpad with 0.1 mL of 5 mg/mL suspension of killed and dried Mycobacterium butyricum (Difco, Detroit, Mich.) in liquid paraffin. Compound was suspended in 0.5% hydroxypropylmethylcellulose (HPMC) containing 0.2% Tween-80 and administered orally 1 hour before injection. Subsequent doses of the compound were given 24 and 48 hours after the Mycobacterium. Control animals were given vehicle alone. Swelling was assessed on the third day by subtracting the initial volume (determined immediately following the Mycobacterium injection) from the final volume of the treated paw. Paw volume was determined by mercury plethysmography. The percent inhibition of edema achieved in each compound-treated group was determined by comparison with swelling in the vehicle-treated group and the ID50 values were determined by regression analysis. Statistical significance between experimental groups was evaluated using a Student's t-test.

[2] = tested on: experimental allergic encephalomyelitis (EAE); test: EAE Lewis rat acute model, Protocol 2 (alternate day dosing); assay type: in vivo, female Lewis rats; settings: for Effect on EAE Rats (≥ Paresis/Total): CFA + MBP, PBS control 5/7
Experimental: (§1) The activity of Example 2 in suppressing the inflammatory disease associated with EAE was tested using the Lewis rat acute model. Female Lewis rats were purchased from Harlan Sprague-Dawley (Indianapolis, Ind.) and were used at 8 to 10 weeks of age. Active EAE was induced by injection of 0.05 mL emulsion of myelin basic protein (MBP) with complete Freund's adjuvant (CFA), containing 25 μg guinea pig MBP and 100 μg Mycobacterium butyricum (Difco Laboratories, Detroit, Mich.) into one hind footpad. Immunized rats were observed daily for clinical signs of EAE and scored as follows: 0, no symptoms; 1, loss of tail tonicity; 2, paresis; 3, hind limb paralysis, often accompanied by incontinence; and 4, death. Formalin-fixed brain slice sections were stained with hematoxylin-eosin and evaluated microscopically for perivascular and parenchymal infiltration. Compound was administered by gavage as a solution in sterile saline in a volume of 500 μL. The dose of 50 mg/kg typically required 7.5 mg of compound per rat. Several different protocols were used to define the efficacy and timing retirements for potency.
Protocol 2: To determine whether less frequent dosing or dosing at lower levels was still effective at suppressing EAE, compound was administered at either 50 mg/kg or at 10 mg/kg on Day 0 and on alternate days through Day 14. […] Controls run in parallel included CFA only and MBP in CFA. N=4 for treatment groups. N=8 for controls.

[3] = tested on: experimental allergic encephalomyelitis (EAE); test: EAE Lewis rat acute model, Protocol 1 (daily oral dosing); assay type: in vivo, female Lewis rats
Experimental: as §1
Protocol 1: Compound was administered daily at 50 mg/kg beginning on Day 0 and continuing through Day 14, with MBP in CFA administered on Day 0 also. […] The percentage of animals responding is also very high with 100% of treated animals-showing either a total inhibition of symptoms (80%) or reduction of symptoms (20%). N=5 for all groups.

[4] = tested on: leukocyte migration across the blood-brain barrier; test: Histology of brain slices from EAE rats, Protocol 1; assay type: in vivo, Lewis rat; settings: 50 mg/kg daily
Experimental: as §1

[5] = biological target: GCD (recombinant gelatinase A catalytic domain); test: Inhibition of thiopeptolide substrate conversion by GCD; assay type: biochemical; settings: thiopeptolide substrate Ac-Pro-Leu-Gly-thioester-Leu-Leu-Gly-OEt
Description: Matrix metalloproteinases share high sequence hemology and the catalytic domains of each of the MMPs can be identified by sequence alignment. The gene for the catalytic domain of stromelysin-1, SCD, was constructed by removing the propeptide and C-terminal domain (Ye Q.-Z., Johnson L. L, Hupe D. J., and Baragi V., "Purification and Characterization of the Human Stromelysin Catalytic Domain Expressed in Escherichia coli", Biochemistry,1992;31:11231-11235). The gelatinase A catalytic domain, GCD, was similarly constructed with the additional removal of the fibronectin-like insert which interrupts the catalytic domain (Ye Q.-Z., Johnson L. L., Yu A. E., and Hupe D., "Reconstructed 19 kDa Catalytic Domain of Gelatinase A is an Active Proteinase", Biochemistry, 1995;34:4702-4708). Both truncated proteins cleave synthetic peptide substrates and the natural substrates proteoglycan and gelatin in a manner similar to the full-length enzymes and can be used to identify matrix metalloproteinase inhibitors.
Experiments were carried out with both the full-length enzymes and the catalytic domains. […] IC50 values were determined using a thiopeptolide substrate, Ac-Pro-Leu-Gly-thioester-Leu-Leu-Gly-OEt (Ye Q.-Z., Johnson L. L., Hupe D. J., and Baragi V., "Purification and Characterization of the Human Stromelysin Catalytic Domain Expressed in Escherichia coli", Biochemistry,1992;31:11231-11235). […]

Plasma concentrations = assay type: in vivo
[6] = tested on: experimental allergic encephalomyelitis (EAE); settings: dose dependent; Gijbels et al. 1994; cited from earlier work
[7] = tested on: bovine nasal and pig articular cartilage; settings: Andrews et al. 1992; Ellis et al. 1994; cited from earlier work

In the case of `O=C(O)CCC(=NO)c1ccc2oc3ccccc3c2c1` [Example 2, 4-Dibenzofuran-2-yl-4-hydroximino-butyric acid], the “% Inhibition of Swelling” value ([1]; 2 mg/kg oral) is reported as 23%, the “% Inhibition of Swelling” value ([1]; 10 mg/kg oral) is reported as 27% and the “% Inhibition of Swelling” value ([1]; 50 mg/kg oral) is reported as 40%. For the same compound, the “Effect on EAE Rats (≥ Paresis/Total)” value ([2]; 10 mg/kg alternate days) was 0/4, the “Effect on EAE Rats (≥ Paresis/Total)” value ([2]; 50 mg/kg alternate days) was 0/4 and the “decrease in disease severity, significance” value ([2]; Day 15, p≤0.01, 10 or 50 mg/kg alternate days) was “highly significant”. For the same compound, the “effect on average scores for the treated group” value ([3]; 50 mg/kg daily, Day 0-14) was “substantially reduced the average scores”, the “treated animals showing either a total inhibition of symptoms or reduction of symptoms” value ([3]; 50 mg/kg daily, Day 0-14, N=5) was 100% and the “Day of Peak” value ([3]; CFA + MBP, 50 mg/kg daily oral from Day 0) was 12 days. The “Clinical Grade at Peak of Disease Expression” value ([3]; CFA + MBP, 50 mg/kg daily oral from Day 0, N=5, SD 1.22, PBS control 3.0) was 1.0, the “Effect on EAE Rats (≥ Paresis/Total)” value ([3]; CFA + MBP, 50 mg/kg daily oral from Day 0, PBS control 5/5) was 1/5 and the “Effect on EAE Rats (≥ Paresis/Total)” value ([3]; CFA without MBP, 50 mg/kg daily oral from Day 0) was 0/5. For the same compound, the “Clinical Grade at Peak of Disease Expression” value ([3]; CFA without MBP, 50 mg/kg daily oral from Day 0, N=5, SD 0) was 0, the CNS inflammation [4] was “little CNS inflammation” and the cuff formation [4] was “no cuff formation”. For the same compound, the “leukocyte migration across the blood-brain barrier” value [4] was “completely prevented”, the IC50 [5] was 40 nM and the “Cmax and AUC(0-b 4) versus dose” value (Plasma concentrations; 2, 10, 50 mg/kg) was “increase proportionately with dose”. The “bioavailability versus effective range in vitro” value (Plasma concentrations; effective range of gelatinase A and stromelysin-1 inhibition in the in vitro assays) was “well in excess of the effective range of gelatinase A and stromelysin-1 inhibition”.
In the case of `CNC(=O)[C@H](Cc1c[nH]c2ccccc12)NC(=O)[C@@H](CC(=O)NO)CC(C)C` [GM6001], the “clinical expression/development of EAE” value [6] is given as “suppressed the development or reversed the clinical expression”.
In the case of “TIMP-1: natural endogenous inhibitors of MMPs (TIMPs)”, the “formation of collagen fragments” value [7] is listed as “prevented the formation of collagen fragments”.
